Reference: US9682928B2 (NeuroPro Therapeutics, Inc., priority 2009, dated 2017)
Entries after “also recorded” stand apart in the source; their conditions may differ. Like-named read-outs stand apart in the source and are kept apart here.

What was measured:
[1] = biological target: T1, α4β3γ2 GABAA receptor isoform (Homo sapiens, UniProt P18507+P28472+P48169); test: Whole-cell patch clamp, transfected HEK-293T cells; assay type: cell-based, rat or human
T1 construct: expressed in transfected cells; host or cells: HEK-293T, transient transfection
T1 sequence (P48169 36-554): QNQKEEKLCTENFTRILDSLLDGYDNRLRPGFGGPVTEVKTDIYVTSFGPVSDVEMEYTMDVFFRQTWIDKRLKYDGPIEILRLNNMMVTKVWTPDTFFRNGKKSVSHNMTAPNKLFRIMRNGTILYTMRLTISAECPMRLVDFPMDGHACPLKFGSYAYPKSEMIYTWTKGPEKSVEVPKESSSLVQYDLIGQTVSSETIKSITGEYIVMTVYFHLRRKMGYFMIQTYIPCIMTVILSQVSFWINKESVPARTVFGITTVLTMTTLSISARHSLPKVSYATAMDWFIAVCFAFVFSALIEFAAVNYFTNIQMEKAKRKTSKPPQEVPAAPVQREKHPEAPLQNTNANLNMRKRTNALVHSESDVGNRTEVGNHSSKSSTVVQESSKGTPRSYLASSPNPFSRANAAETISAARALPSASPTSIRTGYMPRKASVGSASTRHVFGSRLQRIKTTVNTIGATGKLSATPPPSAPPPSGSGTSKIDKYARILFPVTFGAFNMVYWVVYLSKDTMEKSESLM
T1 sequence (P28472 26-473): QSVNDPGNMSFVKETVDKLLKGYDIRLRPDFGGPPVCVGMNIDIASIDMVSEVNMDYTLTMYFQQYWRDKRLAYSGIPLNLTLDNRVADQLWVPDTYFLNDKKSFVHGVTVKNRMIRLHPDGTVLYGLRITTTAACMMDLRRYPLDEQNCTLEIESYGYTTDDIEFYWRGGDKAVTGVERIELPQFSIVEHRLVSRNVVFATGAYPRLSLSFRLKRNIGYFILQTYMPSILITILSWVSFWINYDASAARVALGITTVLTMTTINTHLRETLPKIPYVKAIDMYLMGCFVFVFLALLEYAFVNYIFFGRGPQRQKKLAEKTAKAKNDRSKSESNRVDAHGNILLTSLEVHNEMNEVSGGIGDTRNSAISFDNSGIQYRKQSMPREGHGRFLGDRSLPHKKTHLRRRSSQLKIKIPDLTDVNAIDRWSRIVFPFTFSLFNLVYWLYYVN
T1 sequence (P18507 40-475): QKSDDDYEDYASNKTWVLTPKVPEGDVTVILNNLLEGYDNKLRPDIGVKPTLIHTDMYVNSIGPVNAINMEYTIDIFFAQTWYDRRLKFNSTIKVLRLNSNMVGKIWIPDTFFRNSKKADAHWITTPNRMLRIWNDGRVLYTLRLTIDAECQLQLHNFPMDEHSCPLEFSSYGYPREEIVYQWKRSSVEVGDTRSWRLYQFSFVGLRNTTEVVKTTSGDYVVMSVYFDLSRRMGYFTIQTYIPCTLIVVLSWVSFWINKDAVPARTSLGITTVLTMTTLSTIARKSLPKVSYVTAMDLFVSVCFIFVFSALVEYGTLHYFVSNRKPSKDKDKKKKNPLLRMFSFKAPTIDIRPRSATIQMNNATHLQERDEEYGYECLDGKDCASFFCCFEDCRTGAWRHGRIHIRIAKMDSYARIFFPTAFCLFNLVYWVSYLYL
Description: The addition of GABA to […] activates the recombinant expressed GABAA receptors, creating an ion movement through the ion channel in the GABAA receptor. The electrical current generated by the movement of chloride ions into the cells can be quantified.
HEK-293T cells were transiently transfected with rat or human GABAA receptor subunits. Whole-cell patch clamp recording was performed at −50 mV unless otherwise indicated. Test compounds was diluted from a freshly made stock in DMSO, GABA was prepared from a frozen stock. For each experiment GABA or GABA+a test compound was applied for 5 seconds, and the electrical current generated by the movement of chloride ions into the cells was measured and recorded as a trace of current versus time.
Compounds described herein (e.g., NTP-2014) were tested at high and low GABA concentrations against multiple GABAA receptor isoforms (e.g., α1β3γ2, α2β3 γ2, α3β3γ2, α3β3γ2, α4β3γ2, α5β3γ2, α6β3γ2). […] NTP-2014 inhibits the currents in the parasynaptic α4 GABAA receptor isoform in GABAergic interneurons. […]

male Sprague Dawley rats = test: Taxol-induced peripheral neuropathy (rat), mechanical allodynia (von Frey); assay type: in vivo; settings: for Pain relief as measured by mechanical allodynia: rat, IP, Day 32, 75 mg/kg (NTP-2014, NTP-2026)
Excerpt: In this study, an animal model of Taxol-induced sensory neuropathy was employed to evaluate the effects of the sponsor's test compounds, for response to tactile sensitivity using von Frey test of mechanical allodynia. […] Therefore, Taxol-induced mechanical allodynia was employed as the measured behavioral endpoint.
The test substance was homogenized and dispersed using a mortar and a pestle in 0.2% hydroxypropylmethylcellulose (HPMC) in physiological saline, which served as the vehicle. Test articles were administered intraperitoneally in dose volumes of 10 mL/kg body weight. Preparations were made freshly for each day of administration.
Prior to test article NTP-2024 and vehicle control group administration, rats were pretreated at 30 minutes and again at 10 minutes prior to test article administration with a general metabolic inhibitor, piperonyl butoxide (150 mg/kg i.p.) in DMSO, at a volume of 1 mL/kg.
The reference article, Gabapentin, was formulated in saline to a concentration of 100 mg/mL and delivered […] at a dose volume of 1 mL/kg body weight (for a dosing concentration of 100 mg/kg).
All animals were administered Taxol, 2 mg/kg, IP at a dose volume of 1 mL/kg, on Days 1, 3, 5 and 7.
On Day 32, all animals received a single intraperitoneal injection of test article or vehicle according to Tables 1 and 2. For group 1 (vehicle), rats were pre-treated with Piperonyl butoxide (150 mg/kg IP, dose volume of 1 mL/kg) at 30 minutes and again at 10 minutes prior to vehicle administration. Four animals in group 3 (NTP-2024) were also pre-treated with Piperonyl butoxide (150 mg/kg IP, dose volume of 1 mL/kg) at 30 minutes and again at 10 minutes prior to vehicle administration. Animals in Groups 2, 3, 4, & 5 were pre-treated with Saline (dose volume of 1 mL/kg, IP) at 30 minutes and again at 10 minutes prior to test article administration. With the exception of animals in group 2, the animals received an IP injection of vehicle or test article 30 min prior to mechanical allodynia testing. Animals were dosed at a volume of 10 mL/kg.
Animals in group 2, received an IP injection of Gabapentin 90 minutes prior to mechanical allodynia testing. Animals were dosed at a volume of 1 mL/kg.
All animals underwent von Frey testing for mechanical allodynia. On testing days, the animals were returned to the chambers and allowed approximately 15 minutes to explore their surroundings prior to testing. A series of filaments were applied to the left hind paw. A 2.0 g filament was first applied to the plantar surface, if the animal responded to the filament (by lifting its paw) then the next smaller filament was applied. […] This is repeated in an “Up down” method for four responses after the first initial change in response.
The original study design used thermal hyperalgesia as the main parameter for testing the ability of the test compounds to ameliorate the pain associated with the Taxol injection. The treatment inclusion was set at a 20% drop from baseline values as determined on Day 28. […] The study design was amended to use mechanical allodynia as the testing parameter. […] This changed the testing days from Day 28 to Day 31 for allodynia confirmation and Day 29 to Day 32 for testing the article efficacy. Additional animals were received to complete the group size designation. These animals were tested for mechanical allodynia only. The study was then further amended to remove the piperonyl butoxide as a pre-treatment for Group 3 (NTP-2024). […] Because this study was conducted in two portions, four (4) animals from Group 3 received the metabolic inhibitor and five (5) received Saline as a pre-treatment.
The group mean results were analyzed versus the vehicle control group using a two way ANOVA, followed by a Bonferroni post-hoc test. Individual groups were tested pre and post dose using a paired t-test.

For CCCCNc1cc(C(=O)O)cc(S(N)(=O)=O)c1Oc1ccccc1 [Bumetanide, reference compound], the “Effect on α4β3γ2 GABAA receptor isoform” value ([1]; up to a concentration of 100 μM, 100 μM GABA) was “no effect; also recorded: no-effect”.

In the case of CCCCN(CCCC)c1cc(C(=O)O)cc(S(N)(=O)=O)c1Oc1ccccc1 [NTP-2014, 3-Aminosulfonyl-5-N,N-dibutylamino-4-phenoxybenzoic acid], the “Activity compared to GBP at 100 mg/kg” value (male Sprague Dawley rats; 75 mg/kg) is reported as “mechanical allodynia-equal to if not better activity”, the “Pain relief as measured by mechanical allodynia” value (male Sprague Dawley rats; 75 mg/kg) is reported as “significant improvement in allodynia; also recorded: significant treatment effect; also recorded: effective analgesic effects” and the IC50 ([1]; 100 μM GABA (FIG. 42), read-out: IC50, inhibition of α4β3γ2 GABAA receptor isoform) is reported as 16 µM. For the same compound, the “Effect on currents, α4 GABAA receptor isoform” value ([1]; 1, 10, 100 μM GABA) was “inhibiting currents; also recorded: inhibited by NTP-2014 at higher GABA concentrations, but unaffected at lower GABA concentrations; also recorded: inhibition of currents”, the EC50 ([1]; FIG. 41C, read-out: EC50 in α4 containing GABAA receptor isoforms) was 20.2 µM and the IC50 ([1]; read-out: IC50, receptors containing the α4 subunit) was 10 to 30 µM.

With CCCCNc1cc(C(=O)NN2CCOCC2)cc(S(N)(=O)=O)c1Oc1ccccc1 [NTP-2024, N-Morpholinyl 3-Aminosulfonyl-5-N-butylamino-4-phenoxybenzamide] the Mean allodynia score (male Sprague Dawley rats; metabolic inhibitor pre-treatment removed) was 8.04 g and the Mean allodynia score (male Sprague Dawley rats; pre-treated with the metabolic inhibitor (PBx)) was 14.92 g.

With CCCCNc1cc(C(=O)N(C)CCCN(C)C)cc(S(N)(=O)=O)c1Oc1ccccc1 [NTP-2026, N-(3-(Dimethylamino)propyl)-N-methyl 3-Aminosulfonyl-5-N-butylamino-4-phenoxybenzamide] the “Animals with complete reversal of allodynia” value (male Sprague Dawley rats; group of nine rats) was “Three of the nine animals” and the “Pain relief as measured by mechanical allodynia” value (male Sprague Dawley rats; 75 mg/kg) was “slight improvement; also recorded: Several animals demonstrated complete responses”.
